Experimental data reported in PMC3315146 (The Journal of General Physiology, 2012).
Changes are numbered by the printed parent chain.

Assays:
Kcv L70C = target: T1, Kcv L70C (Paramecium bursaria Chlorella virus 1, UniProt Q84568, L70C); test: MTSET cysteine modification, single-channel conductance of L70C; type: biochemical, chlorella virus PBCV-1; conditions: for conductance reduced by: L70C, 0.2 mM cis MTSET for 5 min
T1 sequence (Q84568 1-94 L70C): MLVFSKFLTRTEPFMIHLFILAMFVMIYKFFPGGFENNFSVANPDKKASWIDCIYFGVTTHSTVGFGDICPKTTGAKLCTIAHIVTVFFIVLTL

wt-Kcv = target: T2, wt-Kcv (Paramecium bursaria Chlorella virus 1, UniProt Q84568); test: MTSET control, single-channel conductance of wt-Kcv; type: biochemical, chlorella virus PBCV-1; conditions: 0.2 mM cis MTSET
T2 sequence (Q84568 1-94): T1 sequence (Q84568 1-94 L70C) with C70L

KcsA Y82C = conditions: reverse direction unchanged, ref Heginbotham et al., 1999; cited from earlier work

For `C[N+](C)(C)CCSS(C)(=O)=O` [MTSET, (2-(trimethylammonium)ethyl) methanethiosulfonate], the “conductance reduced by” value (Kcv L70C; 60 mV) was 30%, the “conductance reduced by” value (Kcv L70C; −60 mV) was 78% and the effect on conductance (Kcv L70C; MTSET added in the trans solution (not depicted)) was “not found to reduce the conductance”. The conductance change (wt-Kcv) was “did not observe the conductance change” and the “reduction of cis to trans current” value (KcsA Y82C) was 60%.
